# Data reported in patent US20070203126A1, “Synergistic Mixtures of O-Phenylphenol and Dazomet” (priority 2002, published 2007).
# System: artificial bacterial consortium containing approximately equal numbers of six bacterial strains
# Experiment: bacterial growth inhibition dose protocol in synthetic white water (O.D. 650 nm, 4 hours)
# Assay type: cell-based
# Settings: for Synergy Index / Synergy Index**: SI<1 synergism; for ppm BNS: BNS alone or in blend with NaOPP giving 50% inhibition; for ppm BCDMH: BCDMH alone or in blend with NaOPP giving 50% inhibition; for ppm DBNPA: DBNPA alone or in blend with NaOPP giving 50% inhibition; for ppm BIT: BIT alone or in blend with NaOPP giving 50% inhibition; for ppm Dithiol: Dithiol alone or in blend with NaOPP giving 50% inhibition
# Procedure: The actives were evaluated in synthetic white water with pH values of 5.5 and 8.0. The materials were tested against an artificial bacterial consortium containing approximately equal numbers of six bacterial strains. […] Two of the strains were Kiebsiella pneumoia (ATCC 13883) and Pseudomonas aeruginosa (ATCC 15442). The other four strains were isolated from papermill systems and have been identified as Curtobacterium flaccumfaciens, Burkhlderia cepacia, Bacillus maroccanus, and Pseudomonas glethei. Each strain was inoculated at 37° C. overnight, then suspended in sterile saline. Equal volumes of each strain were then combined to prepare the consortium. The bacterial consortium was distributed into the wells of a microtiter plate in the presence or absence of various concentrations of the active materials. The microtiter plates were incubated at 37° C. Optical density (O.D.) readings at 650 nm were taken initially (t0) and after time 4 hours (t4) of incubation.
# The raw data was converted to “bacterial growth inhibition percentages” according to the following formula: % Inhibition=[(a−b)÷a]·100 […]
# a=(O.D. of control at tn)−(O.D. of control at t0) b=(O.D. of treatment at tn)−(O.D. of treatment at t0)
# The inhibition values can be plotted versus dosage for each active and the particular blend. […] The synergism index (SI) was calculated by the equations described by F. C. Kull, P. C. Eisman, H. D. Sylwestrowicz, and R. L. Mayer (1961), Applied Microbiology 9, 538-541. The values are based on the amount needed to achieve a specified end point. […] Synergy Index (SI)=(QA÷Qa)+(QB÷Qb) […]
# QA=quantity of compound A in mixture, producing the end point
# Qa=quantity of compound A1 acting alone, producing the end point
# QB=quantity of compound B in mixture, producing the end point
# Qb=quantity of compound B1 acting alone, producing the end point
# If SI is less than 1, synergism exists; if SI is greater than 1, antagonism exists, if SI is equal to 1, an additive effect exists.
# [1] = pH 5.5, DIMTS & NaOPP, end point 50% inhibition
# [2] = pH 8.0, DIMTS & NaOPP, Calculated Using 40% Inhibition of Bacterial Growth
# [3] = pH 5.5, BNS & NaOPP, end point 50% inhibition
# [4] = pH 8.0, BNS & NaOPP, end point 50% inhibition
# [5] = pH 5.5, BCDMH & NaOPP, end point 50% inhibition
# [6] = pH 8.0, BCDMH & NaOPP, end point 50% inhibition
# [7] = pH 5.5, Sulfone & NaOPP, end point 50% inhibition
# [8] = pH 8.0, Sulfone & NaOPP, end point 50% inhibition
# [9] = pH 5.5, BIT & NaOPP, end point 50% inhibition
# [10] = pH 5.5, DBNPA & NaOPP, end point 50% inhibition
# [11] = pH 5.5, Dithiol & NaOPP, end point 50% inhibition
# [12] = pH 5.5, NaOCl & NaOPP, Calculated Using 30% Inhibition of Bacterial Growth
# [13] = pH 8.0, BIT & NaOPP, end point 50% inhibition
# [14] = pH 8.0, DBNPA & NaOPP, end point 50% inhibition
# [15] = pH 8.0, Dithiol & NaOPP, end point 50% inhibition
structure (smiles),measurement,setting,value
"Cc1ccc(S(=O)(=O)C(I)I)cc1 [DIMTS, Diiodomethyl-p-tolylsulfone]",Synergy Index,[1],1.00
same,ppm DIMTS,"pH 5.5, DIMTS alone or in blend with NaOPP giving 50% inhibition, ppm active",31.65 ppm
same,Synergy Index**,[2],1.00
same,ppm DIMTS,"pH 8.0, DIMTS alone or in blend with NaOPP producing the end point, footnote: 40% Inhibition of Bacterial Growth",22.84 ppm
"O=[N+]([O-])C(Br)=Cc1ccccc1 [BNS, Bromonitrostyrene]",Synergy Index,[3],1.00
same,ppm BNS,"pH 5.5, ppm active",1.19 ppm
same,Synergy Index,[4],1.00
same,ppm BNS,"pH 8.0, ppm active",3.08 ppm
"CC1(C)C(=O)N(Cl)C(=O)N1Br [BCDMH, 1-Bromo-3-chloro-5,5-dimethylhydantoin]",Synergy Index,[5],1.00
same,ppm BCDMH,"pH 5.5, ppm active",14.60 ppm
same,Synergy Index,[6],1.00
same,ppm BCDMH,"pH 8.0, ppm active",34.37 ppm
"O=S(=O)(C(Cl)(Cl)Cl)C(Cl)(Cl)Cl [Sulfone, Bis(trichlormethyl)sulfone]",Synergy Index,[7],1.00
same,ppm Sulfone,"pH 5.5, Sulfone alone or in blend with NaOPP giving 50% inhibition, ppm active",1.154 ppm
same,Synergy Index,[8],1.00
same,Ppm Sulfone,"pH 8.0, Sulfone alone or in blend with NaOPP giving 50% inhibition, ppm active",1.34 ppm
"[Na+].[O-]c1ccccc1-c1ccccc1 [NaOPP, Sodium orthophenylphenate]",Synergy Index,[5],1.00
same,Synergy Index,[9],1.00
same,Synergy Index,[3],1.00
same,Synergy Index,[10],1.00
same,Synergy Index,[1],1.00
same,Synergy Index,"pH 5.5, Dazomet & NaOPP, end point 50% inhibition",1.00
same,Synergy Index,[11],1.00
same,Synergy Index,"pH 5.5, Iso & NaOPP, end point 50% Inhibition",1.00
same,Synergy Index**,[12],1.00
same,ppm NaOPP,"pH 5.5, NaOPP alone or in blend with BCDMH giving 50% inhibition, ppm active",78.40 ppm
same,ppm NaOPP,"pH 5.5, NaOPP alone or in blend with BIT giving 50% inhibition, ppm active",84.96 ppm
same,ppm NaOPP,"pH 5.5, NaOPP alone or in blend with BNS giving 50% inhibition, ppm active",90.47 ppm
same,ppm NaOPP,"pH 5.5, NaOPP alone or in blend with DBNPA giving 50% inhibition, ppm active",88.38 ppm
same,ppm NaOPP,"pH 5.5, NaOPP alone or in blend with DIMTS giving 50% inhibition, ppm active",84.10 ppm
same,ppm NaOPP,"pH 5.5, NaOPP alone or in blend with Iso giving 50% Inhibition, ppm active",82.73 ppm
same,ppm NaOPP,"pH 5.5, NaOPP alone or in blend with NaOCl producing the end point, footnote: 30% Inhibition of Bacterial Growth",54.92 ppm
same,ppm NaOPP,"pH 5.5, NaOPP alone or in blend with Sulfone giving 50% inhibition, ppm active",56.78 ppm
same,Synergy Index,[7],1.00
same,Synergy Index,[6],1.00
same,Synergy Index,[13],1.00
same,Synergy Index,[4],1.00
same,Synergy Index,[14],1.00
same,Synergy Index**,[2],1.00
same,Synergy Index,"pH 8.0, Dazomet & NaOPP, end point 50% inhibition",1.00
same,Synergy Index,[15],1.00
same,Synergy Index,"pH 8.0, Iso & NaOPP, end point 50% Inhibition",1.00
same,ppm NaOPP,"pH 8.0, NaOPP alone or in blend with BIT giving 50% inhibition, ppm active",116.41 ppm
same,ppm NaOPP,"pH 8.0, NaOPP alone or in blend with BNS giving 50% inhibition, ppm active",123.16 ppm
same,ppm NaOPP,"pH 8.0, NaOPP alone or in blend with DBNPA giving 50% inhibition, ppm active",137.13 ppm
same,ppm NaOPP,"pH 8.0, NaOPP alone or in blend with DIMTS producing the end point, footnote: 40% Inhibition of Bacterial Growth",97.74 ppm
same,ppm NaOPP,"pH 8.0, NaOPP alone or in blend with Dazomet giving 50% inhibition, ppm active",158.32 ppm
same,ppm NaOPP,"pH 8.0, NaOPP alone or in blend with Dithiol giving 50% inhibition, ppm active",132.71 ppm
same,ppm NaOPP,"pH 8.0, NaOPP alone or in blend with Iso giving 50% Inhibition, ppm active",114.14 ppm
same,ppm NaOPP,"pH 8.0, NaOPP alone or in blend with Sulfone giving 50% inhibition, ppm active",67.8 ppm
same,Synergy Index,[8],1.00
"N#CC(Br)(Br)C(N)=O [DBNPA, 2,2-Dibromo-3-nitrilopropionamide]",Synergy Index,[10],1.00
same,ppm DBNPA,"pH 5.5, ppm active",1.69 ppm
same,Synergy Index,[14],1.00
same,ppm DBNPA,"pH 8.0, ppm active",3.01 ppm
"O=c1[nH]sc2ccccc12 [BIT, 1,2-Benzisothiazolin-3-one]",Synergy Index,[9],1.00
same,ppm BIT,"pH 5.5, ppm active",1.46 ppm
same,Synergy Index,[13],1.00
same,ppm BIT,"pH 8.0, ppm active",2.86 ppm
"O=c1ssc(Cl)c1Cl [Dithiol, 4,5-Dichloro-1,2-dithiol-3-one]",Synergy Index,[11],1.00
same,ppm Dithiol,"pH 5.5, ppm active",0.073 ppm
same,Synergy Index,[15],1.00
same,ppm Dithiol,"pH 8.0, ppm active",0.16 ppm
"OCl [NaOCl, Sodium Hypochlorite]",Synergy Index**,[12],1.00
same,ppm NaOCl,"pH 5.5, NaOCl alone or in blend with NaOPP producing the end point, footnote: 30% Inhibition of Bacterial Growth",55.27 ppm
